# Measured values reported in article PMC8145107 (Pharmaceutics, 2021).
# Tests used:
# [1] = target: CYP450 2D6 (Homo sapiens, UniProt P10635); assay: CYP450 enzyme inhibition, 2D6; type: in vitro ADME; details: 10 μM
# [2] = target: CYP450 3A4 (Homo sapiens, UniProt P08684); assay: CYP450 enzyme inhibition, 3A4; details: 10 μM
# [3] = system: A549 cells; assay: Cell death by PI staining / flow cytometry, A549; type: cell-based, human; details: cisplatin 3 µM, Gef 30 µM, alone
# Method: (§1) Cells were plated in 6-well culture plates at a density of 1 × 10^5 cells/well. Compounds were applied to the cells immediately after seeding. When cells were harvested, cells were washed once with 1× phosphate-buffered saline (PBS), dissociated using Trypsin-EDTA, and centrifuged at 13,000 rpm for 3 min at 4 °C. Next, 1 mL of 1× PBS was added to wash the pellet again. Finally, 1 mL of 1× PBS and 1 μg/mL of propidium iodide (PI) were added to each polystyrene round-bottom tube. Flow cytometric analysis was performed using a FACS flow cytometer (BD Bioscience). To measure cell death, 10^4 cells were counted, and PI-stained cells were analyzed. FACS analysis in accordance with the manufacturer’s instruction. […]
# (§2) Table S1. CI values of NSCLC cell lines.
# (§3) Cell line Combination drug NA 10 µM NA 20 µM
# (§4) CI values were calculated from the data of percent inhibition of cell death by PI staining. Each CI
# (§5) value was analyzed by CompuSyn software. […]
# [4] = system: NCI-H460 cells; assay: Cell death by PI staining / flow cytometry, NCI-H460; type: cell-based, human; details: NCI-H460; cisplatin 3 µM, Gef 30 µM, alone
# Method: as §1, §2, §3, §4, §5
# [5] = system: NCI-H460 cells; assay: MTT viability assay, NCI-H460; type: cell-based, human; details: 24 h
# Method: The human NSCLC cell lines of NCI-H460, A549, HCC827, PC9, NCI-H1650, and NCI-H1975 were obtained from the American Type Culture Collection (Rockville, MD, USA). Cells were cultured in RPMI 1640 medium containing 10% FBS, 2 mmol/L L-glutamine, and 100 units/mL of penicillin and streptomycin and maintained at 37 °C in a humidified incubator containing 5% CO2.
# Cell viability against gefitinib-, cisplatin-, and NA49-induced toxicity was determined using an MTT (Amersham Pharmacia Biotech) assay in 96-well plates. […] Next, cells were incubated with 100 µL of 5 mg/mL 3-(4,5-dimethylthiazol-2-yl)-2,5-diphenyltetrazolium bromide (Sigma Aldrich, M5655) for 2 h. After the MTT mixture was removed, 100 µL of DMSO was added to each well, and absorbance at 540 nm was measured using an ELISA plate reader (TECAN, Twinfinite PRO).
# [6] = target: T1, CYP1A2 (Homo sapiens, UniProt P05177); assay: in vitro
# T1 sequence (P05177 1-516): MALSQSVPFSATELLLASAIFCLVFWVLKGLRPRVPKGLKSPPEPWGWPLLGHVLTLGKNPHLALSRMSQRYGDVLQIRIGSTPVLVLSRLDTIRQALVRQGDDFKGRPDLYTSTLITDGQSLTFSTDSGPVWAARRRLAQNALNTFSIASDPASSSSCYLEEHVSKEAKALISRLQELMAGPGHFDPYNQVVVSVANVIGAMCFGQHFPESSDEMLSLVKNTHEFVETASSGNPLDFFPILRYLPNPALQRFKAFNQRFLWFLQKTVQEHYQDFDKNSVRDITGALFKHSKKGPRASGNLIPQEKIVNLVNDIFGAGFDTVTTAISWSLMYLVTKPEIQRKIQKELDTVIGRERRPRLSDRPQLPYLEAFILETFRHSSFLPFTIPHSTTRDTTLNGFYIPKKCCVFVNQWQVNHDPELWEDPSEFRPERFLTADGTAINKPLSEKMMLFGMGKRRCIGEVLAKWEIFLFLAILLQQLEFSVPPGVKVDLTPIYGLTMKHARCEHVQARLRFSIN
# [7] = target: CYP2C9 (Homo sapiens, UniProt P11712); assay: CYP450 enzyme inhibition, 2C9; type: in vitro ADME; details: 10 μM
# Chain of CYP2C9 (P11712 whole entry): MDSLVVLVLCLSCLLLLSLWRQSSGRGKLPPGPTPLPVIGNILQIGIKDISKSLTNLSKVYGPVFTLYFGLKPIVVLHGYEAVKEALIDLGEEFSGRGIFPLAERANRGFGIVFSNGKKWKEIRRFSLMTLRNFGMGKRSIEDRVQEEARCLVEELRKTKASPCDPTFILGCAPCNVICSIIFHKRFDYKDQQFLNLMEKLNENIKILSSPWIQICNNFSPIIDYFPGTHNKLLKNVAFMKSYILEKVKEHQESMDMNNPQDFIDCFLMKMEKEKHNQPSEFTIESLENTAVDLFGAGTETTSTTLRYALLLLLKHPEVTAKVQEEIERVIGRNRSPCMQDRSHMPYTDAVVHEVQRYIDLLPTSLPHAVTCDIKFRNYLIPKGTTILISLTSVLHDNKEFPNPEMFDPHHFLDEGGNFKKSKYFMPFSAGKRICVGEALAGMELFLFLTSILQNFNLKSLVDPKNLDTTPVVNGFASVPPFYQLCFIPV
# Method: (§6) Permeability was evaluated with a parallel artificial membrane permeability (PAMPA) assay using an artificially generated lipid-infused membrane.
# [8] = system: Salmonella typhimurium TA98; details: TA98, without S-9 mix; J2 40, NA49 200, positive controls 1-2 μg/plate
# Method: To perform the Ames test of J2 and NA49, the number of revertant colonies was counted on each compound-treated plate at the maximum concentration at which the compound was soluble and nontoxic to the S. typhimurium tester strains (Supplementary Material S1). The ratio of the number of revertant colonies in the treated plate to colonies in the vehicle plate. […] For the hERG K^+ channel binding assay of J2 and NA49, the inhibitory activity against the hERG K^+ channel and its ligand was measured using a red fluorescent hERG channel ligand tracer. The final activity was assessed as a decrease in the degree of fluorescence polarization. […]
# The test was conducted with maximum concentration at which the compound was
# soluble and nontoxic to the S. typhimurium tester strains. #Factor = No. of revertant colonies
# of treated plate colonies of vehicle control plate. […]
# [9] = target: CYP450 2C19 (Homo sapiens, UniProt P33261); assay: CYP450 enzyme inhibition, 2C19; type: in vitro ADME; details: 10 μM
# Chain of CYP450 2C19 (P33261 whole entry): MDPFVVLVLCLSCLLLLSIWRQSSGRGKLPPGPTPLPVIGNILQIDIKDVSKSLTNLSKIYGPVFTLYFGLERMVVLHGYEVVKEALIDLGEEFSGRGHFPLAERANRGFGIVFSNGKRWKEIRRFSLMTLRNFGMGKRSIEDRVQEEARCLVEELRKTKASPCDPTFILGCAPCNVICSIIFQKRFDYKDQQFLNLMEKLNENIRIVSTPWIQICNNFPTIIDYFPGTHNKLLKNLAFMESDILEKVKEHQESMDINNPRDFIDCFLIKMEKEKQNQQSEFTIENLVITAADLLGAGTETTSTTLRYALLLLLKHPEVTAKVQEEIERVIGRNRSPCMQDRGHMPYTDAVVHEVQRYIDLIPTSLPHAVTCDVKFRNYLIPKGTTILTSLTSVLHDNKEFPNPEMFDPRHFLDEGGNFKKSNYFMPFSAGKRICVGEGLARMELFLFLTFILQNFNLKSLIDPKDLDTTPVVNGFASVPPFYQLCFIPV
# Method: as §6
# Chain of CYP450 2D6 (P10635 whole entry): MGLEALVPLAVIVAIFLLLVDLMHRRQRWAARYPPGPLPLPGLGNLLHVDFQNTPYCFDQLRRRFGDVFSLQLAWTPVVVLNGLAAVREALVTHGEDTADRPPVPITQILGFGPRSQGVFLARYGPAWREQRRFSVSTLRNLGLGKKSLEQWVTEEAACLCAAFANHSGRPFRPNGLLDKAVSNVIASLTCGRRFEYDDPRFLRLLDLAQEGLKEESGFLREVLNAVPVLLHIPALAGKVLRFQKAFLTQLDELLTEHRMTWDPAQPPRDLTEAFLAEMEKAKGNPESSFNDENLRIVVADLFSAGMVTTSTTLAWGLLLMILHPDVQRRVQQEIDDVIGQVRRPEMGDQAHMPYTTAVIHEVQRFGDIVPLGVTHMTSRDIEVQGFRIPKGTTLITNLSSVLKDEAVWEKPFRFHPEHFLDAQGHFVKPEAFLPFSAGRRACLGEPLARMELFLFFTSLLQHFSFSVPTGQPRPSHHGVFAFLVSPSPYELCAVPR
# Chain of CYP450 3A4 (P08684 whole entry): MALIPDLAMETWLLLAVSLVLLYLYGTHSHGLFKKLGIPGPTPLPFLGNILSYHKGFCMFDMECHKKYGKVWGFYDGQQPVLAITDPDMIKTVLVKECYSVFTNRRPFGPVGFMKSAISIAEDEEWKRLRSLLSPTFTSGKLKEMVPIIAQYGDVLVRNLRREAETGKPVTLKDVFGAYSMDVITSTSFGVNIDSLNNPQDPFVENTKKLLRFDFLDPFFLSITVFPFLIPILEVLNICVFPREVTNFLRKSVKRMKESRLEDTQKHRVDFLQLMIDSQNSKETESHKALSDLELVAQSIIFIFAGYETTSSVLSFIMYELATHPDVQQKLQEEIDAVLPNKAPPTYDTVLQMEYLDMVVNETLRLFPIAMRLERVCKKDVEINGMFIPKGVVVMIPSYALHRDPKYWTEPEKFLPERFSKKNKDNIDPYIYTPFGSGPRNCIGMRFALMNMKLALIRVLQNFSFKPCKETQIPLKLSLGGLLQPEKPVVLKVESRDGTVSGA
smiles,measurement,setting,value
"CN1CC[C@@]23CCCC[C@@H]2[C@@H]1Cc1ccc(O)cc13 [dextrophan, reference compound]","% inhibition of CYP450 2D6, positive control",[1],94.0%
"OCc1ncc2n1-c1ccc(Cl)cc1C(c1ccccc1F)=NC2 [OH-midazolam, reference compound]","% inhibition of CYP450 3A4, positive control",[2],92.5%
"N.N.[Cl][Pt][Cl] [Cisplatin, cisplatin, reference compound]",Cell death,[3],less than 30%
same,Cell death,[4],less than 30%
same,IC50,[5],11.7 µM
CC(=O)Nc1ccc(O)cc1 [acetaminophen],inhibition at 10 μM,[6],92.4%
"COc1cc2ncnc(Nc3ccc(F)c(Cl)c3)c2cc1OCCCN1CCOCC1 [Gef, Gefitinib, reference compound]",Cell death,[3],less than 30%
same,Cell death,[4],less than 30%
"CCCCNC(=O)NS(=O)(=O)c1ccc(CO)cc1 [OH-tolbutamide, reference compound]","% inhibition of CYP450 2C9, positive control",[7],91.7%
"[N-]=[N+]=[N-].[Na+] [sodium azide, reference compound]",Factor (revertant colonies of treated plate/vehicle control plate),[8],4.1
same,Revertant colonies/plate (Mean ± S.D.),[8],441 ± 16 colonies/plate
"COc1ccc2nc([S+]([O-])Cc3ncc(CO)c(OC)c3C)[nH]c2c1 (centres unmarked) [OH-omeprazole, reference compound]","% inhibition of CYP450 2C19, positive control",[9],93.2%
"O=[N+]([O-])c1ccc2c(c1)Cc1ccccc1-2 [2-nitrofluorene, reference compound]",Factor (revertant colonies of treated plate/vehicle control plate),[8],28.9
same,Revertant colonies/plate (Mean ± S.D.),[8],462 ± 24 colonies/plate
